# Measured values: US12617779B2, “Self degradation-type CDK9 inhibitor prodrug and liposome encapsulating same” (Sumitomo Pharma Co., Ltd., priority 2021, dated 2026)
# Assay: Evaluation of conversion rate to active form in buffer solution (Experimental Example 1)
# Type: physicochemical
# Conditions: for Production rate of Alvocidib / Residual rate: 37° C., 25 umol/L in buffer solution; for Stability in buffer solution at pH 5: pH 5, 37° C., up to 2 or 3 hours; for Conversion to Alvocidib at pH 7.4: pH 7.4, 37° C., up to 3 hours
# In short: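 HPLC read-out: residual parent and Alvocidib production rate after 0, 0.5, 1, 2 and 3 hours. Compounds sat at 25 umol/L, 37° C, in buffers from pH 5.0 to 7.4 (50 mM citrate below pH 6.0, 50 mM phosphate otherwise).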
structure (smiles),measurement,setting,value
"CN1CC[C@H](c2c(OC(=O)N(Cc3ccccc3)CC3CCCCN3)cc(O)c3c(=O)cc(-c4ccccc4Cl)oc23)[C@H](O)C1 (stereo partly drawn) [Example 15, 2-(2-chlorophenyl)-5-hydroxy-8-[(3S,4R)-3-hydroxy-1-methylpiperidin-4-yl]-4-oxo-4H-1-benzopyran-7-yl benzyl [(piperidin-2-yl)methyl]carbamate]",Production rate of Alvocidib,"pH5.0, 0 hr",1.4%
same,Residual rate,"pH5.0, 0 hr",95.6%
same,Stability in buffer solution at pH 5,,stable
same,Production rate of Alvocidib,"pH5.0, 0.5 hr",1.9%
same,Residual rate,"pH5.0, 0.5 hr",95.2%
same,Production rate of Alvocidib,"pH5.0, 1 hr",2.6%
same,Residual rate,"pH5.0, 1 hr",94.7%
same,Production rate of Alvocidib,"pH5.0, 2 hr",3.8%
same,Residual rate,"pH5.0, 2 hr",93.5%
same,Production rate of Alvocidib,"pH5.0, 3 hr",4.6%
same,Residual rate,"pH5.0, 3 hr",92.5%
same,Production rate of Alvocidib,"pH5.5, 0 hr",1.4%
same,Residual rate,"pH5.5, 0 hr",95.6%
same,Production rate of Alvocidib,"pH5.5, 0.5 hr",2.8%
same,Residual rate,"pH5.5, 0.5 hr",94.2%
same,Production rate of Alvocidib,"pH5.5, 1 hr",4.5%
same,Residual rate,"pH5.5, 1 hr",92.7%
same,Production rate of Alvocidib,"pH5.5, 2 hr",7.8%
same,Residual rate,"pH5.5, 2 hr",89.5%
same,Production rate of Alvocidib,"pH5.5, 3 hr",9.5%
same,Residual rate,"pH5.5, 3 hr",87.8%
same,Production rate of Alvocidib,"pH6.0, 0 hr",1.5%
same,Residual rate,"pH6.0, 0 hr",95.5%
same,Production rate of Alvocidib,"pH6.0, 0.5 hr",6.2%
same,Residual rate,"pH6.0, 0.5 hr",91.0%
same,Production rate of Alvocidib,"pH6.0, 1 hr",12.4%
same,Residual rate,"pH6.0, 1 hr",84.7%
same,Production rate of Alvocidib,"pH6.0, 2 hr",22.3%
same,Residual rate,"pH6.0, 2 hr",62.8%
same,Production rate of Alvocidib,"pH6.0, 3 hr",25.7%
same,Residual rate,"pH6.0, 3 hr",56.7%
same,Production rate of Alvocidib,"pH6.5, 0 hr",1.9%
same,Residual rate,"pH6.5, 0 hr",94.8%
same,Production rate of Alvocidib,"pH6.5, 0.5 hr",15.1%
same,Residual rate,"pH6.5, 0.5 hr",82.2%
same,Production rate of Alvocidib,"pH6.5, 1 hr",26.1%
same,Residual rate,"pH6.5, 1 hr",56.3%
same,Production rate of Alvocidib,"pH6.5, 2 hr",44.6%
same,Residual rate,"pH6.5, 2 hr",32.9%
same,Production rate of Alvocidib,"pH6.5, 3 hr",52.4%
same,Residual rate,"pH6.5, 3 hr",24.3%
same,Production rate of Alvocidib,"pH7.0, 0 hr",2.8%
same,Residual rate,"pH7.0, 0 hr",94.1%
same,Production rate of Alvocidib,"pH7.0, 0.5 hr",40.7%
same,Residual rate,"pH7.0, 0.5 hr",38.5%
same,Production rate of Alvocidib,"pH7.0, 1 hr",56.9%
same,Residual rate,"pH7.0, 1 hr",7.1%
same,Production rate of Alvocidib,"pH7.0, 2 hr",69.8%
same,Residual rate,"pH7.0, 2 hr",3.8%
same,Production rate of Alvocidib,"pH7.0, 3 hr",69.9%
same,Residual rate,"pH7.0, 3 hr",3.9%
same,Production rate of Alvocidib,"pH7.4, 0 hr",4.8%
same,Residual rate,"pH7.4, 0 hr",92.2%
same,Conversion to Alvocidib at pH 7.4,,rapidly converted to Alvocidib
same,Production rate of Alvocidib,"pH7.4, 0.5 hr",54.7%
same,Residual rate,"pH7.4, 0.5 hr",21.1%
same,Production rate of Alvocidib,"pH7.4, 1 hr",67.3%
same,Residual rate,"pH7.4, 1 hr",8.0%
same,Production rate of Alvocidib,"pH7.4, 2 hr",75.2%
same,Residual rate,"pH7.4, 2 hr",3.1%
same,Production rate of Alvocidib,"pH7.4, 3 hr",77.2%
same,Residual rate,"pH7.4, 3 hr",2.9%
"CCN(CCC1CCCCN1)C(=O)Oc1cc(O)c2c(=O)cc(-c3ccccc3Cl)oc2c1[C@H]1CCN(C)C[C@H]1O (stereo partly drawn) [Example 16, 2-(2-chlorophenyl)-5-hydroxy-8-[(3S,4R)-3-hydroxy-1-methylpiperidin-4-yl]-4-oxo-4H-1-benzopyran-7-yl ethyl[2-(piperidin-2-yl)ethyl]carbamate]",Production rate of Alvocidib,"pH5.0, 0 hr",0.0%
same,Residual rate,"pH5.0, 0 hr",84.3%
same,Stability in buffer solution at pH 5,,stable
same,Production rate of Alvocidib,"pH5.0, 0.5 hr",0.0%
same,Residual rate,"pH5.0, 0.5 hr",84.9%
same,Production rate of Alvocidib,"pH5.0, 1 hr",0.0%
same,Residual rate,"pH5.0, 1 hr",86.4%
same,Production rate of Alvocidib,"pH5.0, 2 hr",0.0%
same,Residual rate,"pH5.0, 2 hr",86.1%
same,Production rate of Alvocidib,"pH5.0, 3 hr",0.0%
same,Residual rate,"pH5.0, 3 hr",86.1%
same,Production rate of Alvocidib,"pH5.5, 0 hr",0.0%
same,Residual rate,"pH5.5, 0 hr",84.9%
same,Production rate of Alvocidib,"pH5.5, 0.5 hr",0.0%
same,Residual rate,"pH5.5, 0.5 hr",85.8%
same,Production rate of Alvocidib,"pH5.5, 1 hr",0.0%
same,Residual rate,"pH5.5, 1 hr",86.3%
same,Production rate of Alvocidib,"pH5.5, 2 hr",0.0%
same,Residual rate,"pH5.5, 2 hr",85.7%
same,Production rate of Alvocidib,"pH5.5, 3 hr",0.0%
same,Residual rate,"pH5.5, 3 hr",86.6%
same,Production rate of Alvocidib,"pH6.0, 0 hr",0.0%
same,Residual rate,"pH6.0, 0 hr",85.3%
same,Production rate of Alvocidib,"pH6.0, 0.5 hr",0.0%
same,Residual rate,"pH6.0, 0.5 hr",84.3%
same,Production rate of Alvocidib,"pH6.0, 1 hr",12.8%
same,Residual rate,"pH6.0, 1 hr",71.7%
same,Production rate of Alvocidib,"pH6.0, 2 hr",21.6%
same,Residual rate,"pH6.0, 2 hr",63.0%
same,Production rate of Alvocidib,"pH6.0, 3 hr",29.3%
same,Residual rate,"pH6.0, 3 hr",55.6%
same,Production rate of Alvocidib,"pH6.5, 0 hr",0.0%
same,Residual rate,"pH6.5, 0 hr",86.0%
same,Production rate of Alvocidib,"pH6.5, 0.5 hr",16.4%
same,Residual rate,"pH6.5, 0.5 hr",67.6%
same,Production rate of Alvocidib,"pH6.5, 1 hr",25.3%
same,Residual rate,"pH6.5, 1 hr",61.4%
same,Production rate of Alvocidib,"pH6.5, 2 hr",47.1%
same,Residual rate,"pH6.5, 2 hr",37.4%
same,Production rate of Alvocidib,"pH6.5, 3 hr",51.5%
same,Residual rate,"pH6.5, 3 hr",34.9%
same,Production rate of Alvocidib,"pH7.0, 0 hr",0.0%
same,Residual rate,"pH7.0, 0 hr",86.2%
same,Production rate of Alvocidib,"pH7.0, 0.5 hr",30.5%
same,Residual rate,"pH7.0, 0.5 hr",54.8%
same,Production rate of Alvocidib,"pH7.0, 1 hr",50.2%
same,Residual rate,"pH7.0, 1 hr",35.7%
same,Production rate of Alvocidib,"pH7.0, 2 hr",68.6%
same,Residual rate,"pH7.0, 2 hr",16.9%
same,Production rate of Alvocidib,"pH7.0, 3 hr",78.2%
same,Residual rate,"pH7.0, 3 hr",7.7%
same,Production rate of Alvocidib,"pH7.4, 0 hr",0.9%
same,Residual rate,"pH7.4, 0 hr",85.3%
same,Conversion to Alvocidib at pH 7.4,,rapidly converted to Alvocidib
same,Production rate of Alvocidib,"pH7.4, 0.5 hr",59.0%
same,Residual rate,"pH7.4, 0.5 hr",23.2%
same,Production rate of Alvocidib,"pH7.4, 1 hr",77.8%
same,Residual rate,"pH7.4, 1 hr",5.9%
same,Production rate of Alvocidib,"pH7.4, 2 hr",82.1%
same,Residual rate,"pH7.4, 2 hr",2.2%
same,Production rate of Alvocidib,"pH7.4, 3 hr",85.8%
same,Residual rate,"pH7.4, 3 hr",0.0%
